Assays:
[1] = system: bicistronic HCV replicon (replicon RNA, GenBank Accession No. AJ242654); assay: HCV Replicon Assay; assay type: cell-based; details: Hepatitis C virus, 72 h, read-out: Replicon IC50

| SMILES | melting point [°C] | IC50 [1] [nM] |
| --- | --- | --- |
| C[C@H](NS(=O)(=O)c1ccc(-c2c(C#N)c3ccc(F)cc3n2C2CCCCC2)nc1)C1CC1 [compound 262, 6-(3-cyano-1-cyclohexyl-6-fluoro-1H-indol-2-yl)-N-[(1S)-1-cyclopropylethyl]pyridine-3-sulfonamide] | 161 to 162 | < 500 |
| Cc1cc2c(cc1F)c(C#N)c(-c1ccc(S(=O)(=O)N[C@@H](C)C(F)(F)F)cn1)n2-c1ccncc1 [compound 933, 6-[3-cyano-5-fluoro-6-methyl-1-(pyridin-4-yl)-1H-indol-2-yl]-N-[(2S)-1,1,1-trifluoropropan-2-yl]pyridine-3-sulfonamide] | 250 to 255 | < 500 |
| Cc1ccc2c(c1)c(C#N)c(-c1ncc(S(=O)(=O)N[C@@H](C)C3CC3)cn1)n2CC1CC1 [compound 561, 2-[3-cyano-1-(cyclopropylmethyl)-5-methyl-1H-indol-2-yl]-N-[(1S)-1-cyclopropylethyl]pyrimidine-5-sulfonamide] | 174 to 178 | 500 to 2000 |
| Cc1ccc2c(C#N)c(-c3ncc(S(=O)(=O)N[C@@H](C)C(F)(F)F)cn3)n(C3CCC3)c2c1 [compound 325, 2-(3-cyano-1-cyclobutyl-6-methyl-1H-indol-2-yl)-N-[(2S)-1,1,1-trifluoropropan-2-yl]pyrimidine-5-sulfonamide] | 242 to 243 | < 500 |
| Cc1ccc2c(C#N)c(-c3ccc(S(=O)(=O)NC4(C(F)(F)F)CC4)cn3)n(C3CCC3)c2c1 [compound 256, 6-(3-cyano-1-cyclobutyl-6-methyl-1H-indol-2-yl)-N-[1-(trifluoromethyl)cyclopropyl]pyridine-3-sulfonamide] | 189 to 194 | < 500 |
| C[C@H](NS(=O)(=O)c1ccc(-c2c(C#N)c3ccc(C(F)(F)F)cc3n2-c2cnccn2)nc1)C(F)(F)F [compound 951, 6-[3-cyano-1-(pyrazin-2-yl)-6-(trifluoromethyl)-1H-indol-2-yl]-N-[(2S)-1,1,1-trifluoropropan-2-yl]pyridine-3-sulfonamide] | 208 to 213 | < 500 |
| CCCn1c(-c2ccc(S(=O)(=O)N[C@H](C)C(F)(F)F)cn2)c(C#N)c2cc(F)c(OC(F)F)cc21 [compound 788, 6-[3-cyano-6-(difluoromethoxy)-5-fluoro-1-propyl-1H-indol-2-yl]-N-[(2R)-1,1,1-trifluoropropan-2-yl]pyridine-3-sulfonamide] | 160 to 166 | < 500 |
| CCc1cc2c(cc1F)c(C#N)c(-c1ccc(S(=O)(=O)NC(C)(C)C)cn1)n2-c1ncccn1 [compound 855, N-tert-butyl-6-[3-cyano-6-ethyl-5-fluoro-1-(pyrimidin-2-yl)-1H-indol-2-yl]pyridine-3-sulfonamide] | 208 to 210 | < 500 |
| C[C@@H](NS(=O)(=O)c1ccc(-c2c(C#N)c3ccc(Cl)cc3n2-c2ccccn2)nc1)C(F)(F)F [compound 489, 6-[6-chloro-3-cyano-1-(pyridin-2-yl)-1H-indol-2-yl]-N-[(2R)-1,1,1-trifluoropropan-2-yl]pyridine-3-sulfonamide] | 198 to 199 | 500 to 2000 |
| CC(C)n1c(-c2ncc(S(=O)(=O)N[C@@H](C)C3CC3)cn2)c(C#N)c2cc(F)ccc21 [compound 529, 2-[3-cyano-5-fluoro-1-(propan-2-yl)-1H-indol-2-yl]-N-[(1S)-1-cyclopropylethyl]pyrimidine-5-sulfonamide] | 176 to 179 | < 500 |
| Cc1ccc2c(C#N)c(-c3ccc(S(=O)(=O)NC(C)(C)C(F)(F)F)cn3)n(C3CCC3)c2c1F [compound 578, 6-(3-cyano-1-cyclobutyl-7-fluoro-6-methyl-1H-indol-2-yl)-N-(1,1,1-trifluoro-2-methylpropan-2-yl)pyridine-3-sulfonamide] | 168 to 175 | < 500 |
| CC(C)NS(=O)(=O)c1ccc(-c2c(C#N)c3cc(F)ccc3n2C2CCOC2)nc1 (stereo not drawn) [compound 47, 6-[3-cyano-5-fluoro-1-(tetrahydrofuran-3-yl)-1H-indol-2-yl]-N-(propan-2-yl)pyridine-3-sulfonamide] | 185 to 188 | < 500 |
| CCn1c(-c2ccc(N(CCO)S(=O)(=O)C3CC3)nc2)c(C#N)c2ccc(OC(C)C)cc21 [compound 293, N-{5-[3-cyano-1-ethyl-6-(propan-2-yloxy)-1H-indol-2-yl]pyridin-2-yl}-N-(2-hydroxyethyl)cyclopropanesulfonamide] | 212 to 214 | 500 to 2000 |
| CC(C)(C)NS(=O)(=O)c1ccc(-c2c(C#N)c3cc(F)c(O)cc3n2C2CCC2)nc1 [compound 719, N-tert-butyl-6-(3-cyano-1-cyclobutyl-5-fluoro-6-hydroxy-1H-indol-2-yl)pyridine-3-sulfonamide] | 242 to 245 | 500 to 2000 |
| CCc1cc2c(cc1F)c(C(N)=O)c(-c1ccc(S(=O)(=O)N[C@@H](C)C(F)(F)F)cn1)n2-c1ncc(C)cn1 [compound 1047, 6-ethyl-5-fluoro-1-(5-methylpyrimidin-2-yl)-2-(5-{[(2S)-1,1,1-trifluoropropan-2-yl]sulfamoyl}pyridin-2-yl)-1H-indole-3-carboxamide] | 257 to 261 | 500 to 2000 |
| C[C@@H](NS(=O)(=O)c1ccc(-c2c(C#N)c3ccc(C4CCC4)cc3n2C2CCCC2)nc1)C(F)(F)F [compound 343, 6-(3-cyano-6-cyclobutyl-1-cyclopentyl-1H-indol-2-yl)-N-[(2R)-1,1,1-trifluoropropan-2-yl]pyridine-3-sulfonamide] | 176 to 178 | 2000 to 5000 |
| N#Cc1c(-c2ccc(S(=O)(=O)NC(CF)CF)cn2)n(-c2ncccn2)c2cc(OC(F)F)ccc12 [compound 635, 6-[3-cyano-6-(difluoromethoxy)-1-(pyrimidin-2-yl)-1H-indol-2-yl]-N-(1,3-difluoropropan-2-yl)pyridine-3-sulfonamide] | 173 to 176 | < 500 |
| N#Cc1c(-c2ccc(S(=O)(=O)NC(CF)CF)cn2)n(-c2ccccc2)c2cc(OC(F)F)ccc12 [compound 226, 6-[3-cyano-6-(difluoromethoxy)-1-phenyl-1H-indol-2-yl]-N-(1,3-difluoropropan-2-yl)pyridine-3-sulfonamide] | 200 to 202 | < 500 |
| C[C@H](NS(=O)(=O)c1ccc(-c2c(C#N)c3cc(Cl)ccc3n2C2CCC2)nc1)C1CC1 [compound 119, 6-(5-chloro-3-cyano-1-cyclobutyl-1H-indol-2-yl)-N-[(1S)-1-cyclopropylethyl]pyridine-3-sulfonamide] | 154 to 155 | < 500 |
| Cc1ccc2c(c1)c(C#N)c(-c1ccc(S(=O)(=O)NC(CF)CF)cn1)n2-c1ccccn1 [compound 504, 6-[3-cyano-5-methyl-1-(pyridin-2-yl)-1H-indol-2-yl]-N-(1,3-difluoropropan-2-yl)pyridine-3-sulfonamide] | 177 to 179 | < 500 |
| N#Cc1c(-c2ncc(S(=O)(=O)NC(CF)CF)cn2)n(C2CCC2)c2cc(N3CCOCC3)ccc12 [compound 321, 2-[3-cyano-1-cyclobutyl-6-(morpholin-4-yl)-1H-indol-2-yl]-N-(1,3-difluoropropan-2-yl)pyrimidine-5-sulfonamide] | 223 to 225 | 500 to 2000 |

— patent US8735414B2 (priority 2009, dated 2014)
